Patent US20130131161A1, “METHODS AND COMPOSITIONS FOR CARDIOVASCULAR DISEASES AND CONDITIONS” (priority 2009, published 2013)

Test system: eNOS
Assay: eNOS protein abundance in HUVECs by immunochemical methods (Example 2)
Type: cell-based, human
Settings: for Fold difference eNOS protein abundance (mean ± sd): (LA-419 5 μM)/(control); for eNOS protein abundance Fold difference (mean ± sd): LA-419 5 μM / control; for eNOS protein abundance Net increase (mean ± sd): avg 5 μM LA-419 − avg Cntl
Description: eNOS Activity and Protein Abundance Measurements
Using immunochemical methods, there was no change in any condition in relation to eNOS protein abundance, Tables ss-L1.

CC(=O)SC1COC2C(O[N+](=O)[O-])COC12 (stereo not drawn) [LA-419, S-(6-Nitro-oxi-hexahydro-furo[3,2-b]furan-3-1-il)thioacetate]
Fold difference eNOS protein abundance (mean ± sd) (Intron 4 b/a, a/a, c/c, n=14): 1.00 (0.09) | Fold difference eNOS protein abundance (mean ± sd) (Intron 4 b/a, n=10): 1.01 (0.10) | Fold difference eNOS protein abundance (mean ± sd) (Intron 4 b/b, b/a, c/c, n=42): 0.99 (0.08) | Fold difference eNOS protein abundance (mean ± sd) (Intron 4 b/b, n=31): 0.98 (0.07) | Fold difference eNOS protein abundance (mean ± sd) (Intron 4 c/c, n=1): 0.94 (0) | Fold difference eNOS protein abundance (mean ± sd) (T786C T/T & T/C, n=45): 0.99 (0.08) | Fold difference eNOS protein abundance (mean ± sd) (T-786C C/C, n=4): 0.93 (0.06) | Fold difference eNOS protein abundance (mean ± sd) (T-786C T/C & C/C, n=27): 0.99 (0.09) | Fold difference eNOS protein abundance (mean ± sd) (T-786C T/C, n=23): 1.00 (0.09) | Fold difference eNOS protein abundance (mean ± sd) (T-786C T/T, n=22): 0.99 (0.06) | eNOS protein abundance Fold difference (mean ± sd) (Caucasian, G894T + T-786C variant G/G + T/C (n=3), Table K): 1.10 (0.05) | eNOS protein abundance Fold difference (mean ± sd) (Caucasian, G894T + T-786C variant G/G + T/T (n=7), reference group, Table K): 1.04 (0.04) | eNOS protein abundance Fold difference (mean ± sd) (Caucasian, G894T + T-786C variant G/T + T/C (n=10), Table K): 1.00 (0.08) | eNOS protein abundance Fold difference (mean ± sd) (Caucasian, G894T + T-786C variant G/T + T/T (n=3), Table K): 1.02 (0.09) | eNOS protein abundance Fold difference (mean ± sd) (Caucasian, G894T + T-786C variant T/T + T/C (n=2), Table K): 1.04 (0.01) | eNOS protein abundance Fold difference (mean ± sd) (Caucasian, G894T variant G/G (n=10), major allele homozygotes, Table J): 1.06 (0.05) | eNOS protein abundance Fold difference (mean ± sd) (Caucasian, G894T variant G/G (n=10), Table I): 1.06 (0.05) | eNOS protein abundance Fold difference (mean ± sd) (Caucasian, G894T variant G/T & T/T (n=16), minor allele carriers, Table J): 1.01 (0.07) | eNOS protein abundance Fold difference (mean ± sd) (Caucasian, G894T variant G/T (n=13), Table I): 1.00 (0.08) | eNOS protein abundance Fold difference (mean ± sd) (Caucasian, G894T variant T/T (n=3), Table I): 1.03 (0.02) | eNOS protein abundance Fold difference (mean ± sd) (Caucasian, Genotype Combination = all minor allele carriers (n=19), Table L): 1.02 (0.08) | eNOS protein abundance Fold difference (mean ± sd) (Caucasian, Genotype Reference = G/G + T/T (n=7), Table L): 1.04 (0.04) | eNOS protein abundance Fold difference (mean ± sd) (Caucasian, Intron 4 variant b/a & a/a (n=6), minor allele carriers, Table J): 1.08 (0.06) | eNOS protein abundance Fold difference (mean ± sd) (Caucasian, Intron 4 variant b/a (n=5), Table I): 1.07 (0.06) | eNOS protein abundance Fold difference (mean ± sd) (Caucasian, Intron 4 variant b/b (n=18), major allele homozygotes, Table J): 1.00 (0.06) | eNOS protein abundance Fold difference (mean ± sd) (Caucasian, Intron 4 variant b/b (n=18), Table I): 1.00 (0.06) | eNOS protein abundance Fold difference (mean ± sd) (Caucasian, T-786C variant T/C & C/C (n=16), minor allele carriers, Table J): 1.02 (0.08) | eNOS protein abundance Fold difference (mean ± sd) (Caucasian, T-786C variant T/C (n=15), Table I): 1.02 (0.08) | eNOS protein abundance Fold difference (mean ± sd) (Caucasian, T-786C variant T/T (n=10), major allele homozygotes, Table J): 1.03 (0.06) | eNOS protein abundance Fold difference (mean ± sd) (Caucasian, T-786C variant T/T (n=10), Table I): 1.03 (0.06) | eNOS protein abundance Fold difference (mean ± sd) (G894T + T-786C variant T/T + C/C (n=1), Table K): 1.01 (0) | eNOS protein abundance Fold difference (mean ± sd) (Intron 4 variant a/a (n=1), Table I): 1.14 (0) | eNOS protein abundance Fold difference (mean ± sd) (T-786C variant C/C (n=1), Table I): 1.01 (0) | eNOS protein abundance (any condition, Tables ss-L1): no change | eNOS protein abundance Net increase (mean ± sd) (Combination of all G894T + T786C genotypes but G/G + T/T, n=31): −0.12 (0.53) pg/ug | eNOS protein abundance Net increase (mean ± sd) (G894T + T786C G/G + T/C, n=8): −0.17 (0.77) pg/ug | eNOS protein abundance Net increase (mean ± sd) (G894T + T786C G/G + T/T, n=18): −0.09 (0.35) pg/ug | eNOS protein abundance Net increase (mean ± sd) (G894T + T786C G/T + C/C, n=1): −0.99 (0) pg/ug | eNOS protein abundance Net increase (mean ± sd) (G894T + T786C G/T + T/C, n=13): −0.03 (0.42) pg/ug | eNOS protein abundance Net increase (mean ± sd) (G894T + T786C G/T + T/T, n=4): −0.03 (0.46) pg/ug | eNOS protein abundance Net increase (mean ± sd) (G894T + T786C T/T + C/C, n=3): −0.41 (0.46) pg/ug | eNOS protein abundance Net increase (mean ± sd) (G894T + T786C T/T + T/C, n=2): 0.17 (0.02) pg/ug | eNOS protein abundance Net increase (mean ± sd) (G894T G/G, n=26): −0.12 (0.50) pg/ug | eNOS protein abundance Net increase (mean ± sd) (G894T G/T & T/T, n=23): −0.10 (0.45) pg/ug | eNOS protein abundance Net increase (mean ± sd) (G894T G/T, n=18): −0.08 (0.46) pg/ug | eNOS protein abundance Net increase (mean ± sd) (G894T T/T, n=5): −0.18 (0.45) pg/ug | eNOS protein abundance Net increase (mean ± sd) (Intron 4 a/a, n=3): −0.05 (0.69) pg/ug | eNOS protein abundance Net increase (mean ± sd) (Intron 4 b/a, a/a, c/c, n=14): −0.05 (0.55) pg/ug | eNOS protein abundance Net increase (mean ± sd) (Intron 4 b/a, n=10): −0.02 (0.56) pg/ug | eNOS protein abundance Net increase (mean ± sd) (Intron 4 b/b, n=31): −0.14 (0.45) pg/ug | eNOS protein abundance Net increase (mean ± sd) (Intron 4 c/c, n=1): −0.44 (0) pg/ug | eNOS protein abundance Net increase (mean ± sd) (T786C C/C, n=4): −0.55 (0.47) pg/ug | eNOS protein abundance Net increase (mean ± sd) (T786C T/C & C/C, n=27): −0.13 (0.55) pg/ug | eNOS protein abundance Net increase (mean ± sd) (T786C T/C, n=23): −0.06 (0.54) pg/ug | eNOS protein abundance Net increase (mean ± sd) (T786C T/T, n=22): −0.08 (0.36) pg/ug
